Data as given in PubChem BioAssay (NCI).
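Protocol summary: plate cells (96-well), add compound at 5 concentrations, incubate 48 h, interpolate endpoints linearly. Here, GI50 denotes the concentration required for 50% inhibition of growth. TGI denotes the concentration required for complete inhibition of growth.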

How the values were obtained:
Test in all cases: DTP human tumour cell line panel, 48 h
[1] = test system: SF-295 CNS
[2] = test system: NCI-H226 lung
[3] = test system: RXF 393 renal
[4] = test system: SR leukemia
[5] = test system: SF-539 CNS
[6] = test system: HT29 colon
[7] = test system: SNB-75 CNS
[8] = test system: UO-31 renal
[9] = test system: RPMI-8226 leukemia
[10] = test system: MDA-MB-435
[11] = test system: SF-268 CNS
[12] = test system: HOP-62 NSCLC
[13] = test system: A549 NSCLC
[14] = test system: NCI-H23 lung
[15] = test system: MDA-MB-468 breast
[16] = test system: CCRF-CEM leukemia
[17] = test system: SK-MEL-28 melanoma
[18] = test system: NCI-H460 lung
[19] = test system: OVCAR-5 ovarian
[20] = test system: OVCAR-3 ovarian
[21] = test system: TK-10 renal
[22] = test system: EKVX NSCLC
[23] = test system: BT-549 breast
[24] = test system: 786-0 renal
[25] = test system: ACHN renal
[26] = test system: M14 melanoma
[27] = test system: PC-3 prostate
[28] = test system: MDA-MB-231 breast
[29] = test system: SN12C renal
[30] = test system: UACC-62 melanoma
[31] = test system: SNB-19 CNS
[32] = test system: HL-60(TB) leukemia
[33] = test system: HCC-2998 colon
[34] = test system: MCF7 breast
[35] = test system: HCT-15 colon
[36] = test system: U251 CNS
[37] = test system: CAKI-1 renal
[38] = test system: DU-145 prostate
[39] = test system: COLO 205 colon
[40] = test system: T-47D breast
[41] = test system: HCT-116 colon
[42] = test system: LOX IMVI melanoma
[43] = test system: OVCAR-4 ovarian
[44] = test system: MALME-3M melanoma
[45] = test system: MOLT-4 leukemia
[46] = test system: HS 578T breast
[47] = test system: KM12 colon
[48] = test system: OVCAR-8 ovarian
[49] = test system: K-562 leukemia
[50] = test system: HOP-92 NSCLC
[51] = test system: SK-OV-3 ovarian
[52] = test system: A498 renal
[53] = test system: SW-620 colon
[54] = test system: IGROV1 ovarian
[55] = test system: SK-MEL-5 melanoma
[56] = test system: NCI-H522 lung
[57] = test system: UACC-257 melanoma

CC1(C)CC[C@]2(C(=O)Nc3ccc(Br)cc3)CC[C@]3(C)C(=CCC4[C@@]5(C)C[C@@H](O)[C@H](O)[C@@](C)(CO)C5CC[C@]43C)C2C1 (some centres undefined)
GI50 [1]: 15.8 µM
TGI [1]: 30.6 µM
GI50 [2]: 16.8 µM
TGI [2]: 34.2 µM
GI50 [3]: 12.6 µM
TGI [3]: 25.6 µM
GI50 [4]: 19.1 µM
TGI [4]: > 100 µM
GI50 [5]: 15.9 µM
TGI [5]: 30 µM
GI50 [6]: 12.9 µM
TGI [6]: 26.7 µM
GI50 [7]: 14.5 µM
TGI [7]: 60.7 µM
GI50 [8]: 13.5 µM
TGI [8]: 33.4 µM
GI50 [9]: 19.5 µM
TGI [9]: 72.3 µM
GI50 [10]: 15.9 µM
TGI [10]: 31.4 µM
GI50 [11]: 20.9 µM
TGI [11]: 71.9 µM
GI50 [12]: 15 µM
TGI [12]: 31.8 µM
GI50 [13]: 30.5 µM
TGI [13]: > 100 µM
GI50 [14]: 17.1 µM
TGI [14]: 33.6 µM
GI50 [15]: 15 µM
TGI [15]: 29.4 µM
GI50 [16]: 23.2 µM
TGI [16]: 75.9 µM
GI50 [17]: 16.1 µM
TGI [17]: 35.8 µM
GI50 [18]: 17.5 µM
TGI [18]: 38.3 µM
GI50 [19]: 13.2 µM
TGI [19]: 27.2 µM
GI50 [20]: 17.1 µM
TGI [20]: 34 µM
GI50 [21]: 19.8 µM
TGI [21]: 49.9 µM
GI50 [22]: 16.6 µM
TGI [22]: 41.6 µM
GI50 [23]: 16.4 µM
TGI [23]: 33.2 µM
GI50 [24]: 16.7 µM
TGI [24]: 31.5 µM
GI50 [25]: 14.6 µM
TGI [25]: 28.2 µM
GI50 [26]: 17.4 µM
TGI [26]: 40.8 µM
GI50 [27]: 14.5 µM
TGI [27]: 40.8 µM
GI50 [28]: 15.3 µM
TGI [28]: 30 µM
GI50 [29]: 16.6 µM
TGI [29]: 31.8 µM
GI50 [30]: 12 µM
TGI [30]: 25.2 µM
GI50 [31]: 25.8 µM
TGI [31]: > 100 µM
GI50 [32]: 18.2 µM
TGI [32]: 50.7 µM
GI50 [33]: 16.2 µM
TGI [33]: 31 µM
GI50 [34]: 14.9 µM
TGI [34]: 34.9 µM
GI50 [35]: 14.6 µM
TGI [35]: 29 µM
GI50 [36]: 16.6 µM
TGI [36]: 33.5 µM
GI50 [37]: 12.6 µM
TGI [37]: 40.8 µM
GI50 [38]: 26.7 µM
TGI [38]: 81 µM
GI50 [39]: 15.2 µM
TGI [39]: 32.8 µM
GI50 [40]: 13.4 µM
TGI [40]: 30.4 µM
GI50 [41]: 13.5 µM
TGI [41]: 26.9 µM
GI50 [42]: 17.8 µM
TGI [42]: 33 µM
GI50 [43]: 15.1 µM
TGI [43]: 35.8 µM
GI50 [44]: 16.1 µM
TGI [44]: 30.4 µM
GI50 [45]: 13.2 µM
TGI [45]: 50 µM
GI50 [46]: 20.1 µM
TGI [46]: 63.5 µM
GI50 [47]: 18.1 µM
TGI [47]: 38.1 µM
GI50 [48]: 24 µM
TGI [48]: 73.7 µM
GI50 [49]: 23.1 µM
TGI [49]: > 100 µM
GI50 [50]: 14.5 µM
TGI [50]: 31.6 µM
GI50 [51]: 16.5 µM
TGI [51]: 38.6 µM
GI50 [52]: 19 µM
TGI [52]: 34.6 µM
GI50 [53]: 25.7 µM
TGI [53]: > 100 µM
GI50 [54]: 17.1 µM
TGI [54]: 37.7 µM
GI50 [55]: 15.7 µM
TGI [55]: 29.1 µM
GI50 [56]: 17.1 µM
TGI [56]: 34.6 µM
GI50 [57]: 20.2 µM
TGI [57]: 56.1 µM
